Test results reported in patent publication US7521479B2 (priority 2001, dated 2009).
Structures can show the parent of a compound that is named as a salt.

Key:
Aβ1-40 = Aβ1-40 (Homo sapiens, UniProt P05067); settings: cited from earlier work
PrP^Sc = PrP^Sc (Mus musculus, UniProt P04925); settings: neuroblastoma cell line permanently infected with prions; cited from earlier work
prions = settings: rodents, administered prophylactically; cited from earlier work
[1] = in vivo; cited from earlier work
scrapie strain ME7 = format: in vivo, C57BL mice
[2] = group d, spleens, at time of death

Aβ1-40, sequence (P05067 672-711 limits assumed): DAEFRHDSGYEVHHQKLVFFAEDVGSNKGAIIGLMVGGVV
PrP^Sc, sequence (P04925 23-230 limits assumed): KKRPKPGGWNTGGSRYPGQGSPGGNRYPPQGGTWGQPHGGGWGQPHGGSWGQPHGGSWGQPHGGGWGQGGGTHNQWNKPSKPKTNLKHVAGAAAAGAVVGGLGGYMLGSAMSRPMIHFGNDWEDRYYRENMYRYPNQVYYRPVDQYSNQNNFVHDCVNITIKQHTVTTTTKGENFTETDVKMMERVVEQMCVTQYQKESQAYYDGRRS

Oc1ccc(O)c2ccccc12 [1,4-dihydroxynaphthalene]
inhibition of Aβ1-40 aggregation and neurotoxicity (Aβ1-40): inhibit Aβ1-40 aggregation and neurotoxicity at comparable molar concentrations to rifampicin

Nc1c(/N=N/c2ccc(-c3ccc(/N=N/c4cc(S(=O)(=O)O)c5ccccc5c4N)cc3)cc2)cc(S(=O)(=O)O)c2ccccc12 [Congo red]
accumulation of PrP^Sc (PrP^Sc): reduce the accumulation of PrP^Sc
disease onset (prions): delay disease onset

Oc1ccc(O)cc1 [Hydroquinone]
inhibition of Aβ1-40 aggregation and neurotoxicity (Aβ1-40): inhibit Aβ1-40 aggregation and neurotoxicity at comparable molar concentrations to rifampicin

N=C(N)N [guanidine hydrochloride]
side effects [1]: bone marrow depression to renal problems to cardiac arrhythmia
PrP^Sc titers at the final endpoint versus group b (scrapie strain ME7; [2]): lower PrP^Sc titers
infectivity at the final endpoint versus group b (scrapie strain ME7; [2]): lower infectivity
survival (time of death) of treated infected mice (scrapie strain ME7; group d: ME7 i.p., oral treatment from 70 days post-infection, 15 then 40 mg/kg/day): live as long as the mice in group a
PrP^Sc level with treatment from one day post inoculation (scrapie strain ME7; group f, prophylactic-like treatment): negligible or not much higher than that provided in the initial inoculum
overall efficacy in scrapie (scrapie strain ME7; overall results): effective in the treatment of scrapie
